Results on four cell lines are retold here after the supplement of paper PMC10307832.

What all share (experiment): relative viability (nuclei count vs DMSO), 5 days (fraction); higher = more cells survive
Compound in test [1]: O=C(Nc1cccc(C(F)(F)F)c1)Nc1cc(S(=O)(=O)NC2CC2)ccc1-c1ccsc1 [AGI-6780] + O=C(CCCCCCC(=O)Nc1ccccc1)NO [Vorinostat] (partner 1 µM)
Put shortly: (§1)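 Relative viability was taken as the ratio of nuclei in treated wells to nuclei in vehicle wells. Lung cancer cell lines in 1536-well plates received compounds by pin tool one day after seeding, either one drug alone or a fixed anchor-drug dose plus five library-drug doses (not always all listed) in √10 steps. Nuclei were counted on 4× images after 5 days of treatment, and values are medians of duplicate plates.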

Compound in test [2]: O=C(Nc1cccc(C(F)(F)F)c1)Nc1cc(S(=O)(=O)NC2CC2)ccc1-c1ccsc1 [AGI-6780] + CC1(C)CCC(c2ccc(Cl)cc2)=C(CN2CCN(c3ccc(C(=O)NS(=O)(=O)c4ccc(N[C@H](CCN5CCOCC5)CSc5ccccc5)c(S(=O)(=O)C(F)(F)F)c4)cc3)CC2)C1 [Navitoclax] (partner 0.5 µM)
Put shortly: as §1

Compound in test [3]: O=C(Nc1cccc(C(F)(F)F)c1)Nc1cc(S(=O)(=O)NC2CC2)ccc1-c1ccsc1 [AGI-6780] + C[C@@H](Oc1cc(-c2cnn(C3CCNCC3)c2)cnc1N)c1c(Cl)ccc(F)c1Cl [Crizotinib] (partner 1 µM)
In a few lines: as §1

Compound in test [4]: O=C(Nc1cccc(C(F)(F)F)c1)Nc1cc(S(=O)(=O)NC2CC2)ccc1-c1ccsc1 [AGI-6780] + Cc1nc(Nc2ncc(C(=O)Nc3c(C)cccc3Cl)s2)cc(N2CCN(CCO)CC2)n1 [Dasatinib] (partner 0.075 µM)
Put shortly:
as §1

As to NCI-H596, the relative viability stood at 0.519 in test [1] (first compound 0.08 µM); 0.533 in test [1] (first compound 0.253 µM); 0.602 in test [1] (first compound 0.8 µM); 0.502 in test [1] (first compound 2.53 µM); 0.642 in test [1] (first compound 8 µM); 0.91 in test [2] (first compound 0.08 µM). The relative viability in test [2] (first compound 0.253 µM) came out at 1.02; in test [2] (first compound 0.8 µM), 0.927; in test [2] (first compound 2.53 µM), 0.774; in test [2] (first compound 8 µM) it was 0.929; in test [3] (first compound 0.08 µM), 0.928; in test [3] (first compound 0.253 µM) it was 1. The relative viability in test [3] (first compound 0.8 µM) was 0.912; in test [3] (first compound 2.53 µM), 0.773; in test [3] (first compound 8 µM), 1.03; in test [4] (first compound 0.08 µM), 0.582; in test [4] (first compound 0.253 µM), 0.583; in test [4] (first compound 0.8 µM) it was 0.624. Further, the relative viability in test [4] (first compound 8 µM) came to 0.665.

As to A-427, the relative viability in test [1] (first compound 0.253 µM) is 0.82; in test [1] (first compound 0.8 µM), 0.857; in test [1] (first compound 2.53 µM) it was 0.816; in test [1] (first compound 8 µM), 0.836; in test [2] (first compound 0.08 µM), 0.942; in test [2] (first compound 0.253 µM), 0.922. In addition, the relative viability was 1 in test [2] (first compound 0.8 µM); 0.81 in test [2] (first compound 2.53 µM); 0.942 in test [2] (first compound 8 µM); 1.02 in test [3] (first compound 0.08 µM); 0.897 in test [3] (first compound 0.253 µM); 1.06 in test [3] (first compound 0.8 µM). Also, the relative viability in test [3] (first compound 2.53 µM) stood at 0.693; in test [3] (first compound 8 µM), 0.901; in test [4] (first compound 0.08 µM), 0.696; in test [4] (first compound 0.253 µM) it was 0.66; in test [4] (first compound 0.8 µM), 0.759; in test [4] (first compound 2.53 µM), 0.582. Further, the relative viability in test [4] (first compound 8 µM) was 0.668.

For the cell line LOU-NH91, the relative viability worked out at 0.954 in test [1] (first compound 0.08 µM); 0.92 in test [1] (first compound 0.253 µM); 0.953 in test [1] (first compound 0.8 µM); 0.926 in test [1] (first compound 2.53 µM); 0.913 in test [1] (first compound 8 µM); 0.718 in test [2] (first compound 0.08 µM). Further, the relative viability in test [2] (first compound 0.253 µM) is 0.735; in test [2] (first compound 0.8 µM), 0.698; in test [2] (first compound 2.53 µM) it was 0.575; in test [2] (first compound 8 µM) it was 0.775; in test [3] (first compound 0.08 µM), 0.753; in test [3] (first compound 0.253 µM), 0.764. Further, the relative viability in test [3] (first compound 0.8 µM) was determined as 0.712; in test [3] (first compound 2.53 µM), 0.705; in test [3] (first compound 8 µM), 0.715; in test [4] (first compound 0.08 µM), 0.533; in test [4] (first compound 0.253 µM), 0.516; in test [4] (first compound 0.8 µM) it was 0.553. The values for the relative viability in test [4] (first compound 2.53 µM) and in test [4] (first compound 8 µM) were 0.531 and 0.558, respectively.

Regarding HCC-366, the relative viability in test [1] (first compound 0.08 µM) is 0.355; in test [1] (first compound 0.253 µM) it was 0.315; in test [1] (first compound 0.8 µM), 0.346; in test [1] (first compound 2.53 µM), 0.285; in test [1] (first compound 8 µM), 0.446; in test [2] (first compound 0.08 µM), 1.03. In addition, the relative viability was 1.12 in test [2] (first compound 0.253 µM); 0.984 in test [2] (first compound 0.8 µM); 0.944 in test [2] (first compound 2.53 µM); 1.05 in test [2] (first compound 8 µM); 0.606 in test [3] (first compound 0.08 µM); 0.56 in test [3] (first compound 0.253 µM). Further, the relative viability in test [3] (first compound 0.8 µM) is 0.445; in test [3] (first compound 2.53 µM), 0.335; in test [3] (first compound 8 µM) it was 0.374; in test [4] (first compound 0.08 µM) it was 0.678; in test [4] (first compound 0.253 µM), 0.608; in test [4] (first compound 0.8 µM) it was 0.684. Moreover, the relative viability in test [4] (first compound 2.53 µM) turned out to be 0.245; in test [4] (first compound 8 µM), 0.556.
